Columns and labels:
[1] = target: T1, Tyrosine-protein kinase receptor TYRO3 (Homo sapiens, UniProt Q06418)
T1 sequence (Q06418 whole entry): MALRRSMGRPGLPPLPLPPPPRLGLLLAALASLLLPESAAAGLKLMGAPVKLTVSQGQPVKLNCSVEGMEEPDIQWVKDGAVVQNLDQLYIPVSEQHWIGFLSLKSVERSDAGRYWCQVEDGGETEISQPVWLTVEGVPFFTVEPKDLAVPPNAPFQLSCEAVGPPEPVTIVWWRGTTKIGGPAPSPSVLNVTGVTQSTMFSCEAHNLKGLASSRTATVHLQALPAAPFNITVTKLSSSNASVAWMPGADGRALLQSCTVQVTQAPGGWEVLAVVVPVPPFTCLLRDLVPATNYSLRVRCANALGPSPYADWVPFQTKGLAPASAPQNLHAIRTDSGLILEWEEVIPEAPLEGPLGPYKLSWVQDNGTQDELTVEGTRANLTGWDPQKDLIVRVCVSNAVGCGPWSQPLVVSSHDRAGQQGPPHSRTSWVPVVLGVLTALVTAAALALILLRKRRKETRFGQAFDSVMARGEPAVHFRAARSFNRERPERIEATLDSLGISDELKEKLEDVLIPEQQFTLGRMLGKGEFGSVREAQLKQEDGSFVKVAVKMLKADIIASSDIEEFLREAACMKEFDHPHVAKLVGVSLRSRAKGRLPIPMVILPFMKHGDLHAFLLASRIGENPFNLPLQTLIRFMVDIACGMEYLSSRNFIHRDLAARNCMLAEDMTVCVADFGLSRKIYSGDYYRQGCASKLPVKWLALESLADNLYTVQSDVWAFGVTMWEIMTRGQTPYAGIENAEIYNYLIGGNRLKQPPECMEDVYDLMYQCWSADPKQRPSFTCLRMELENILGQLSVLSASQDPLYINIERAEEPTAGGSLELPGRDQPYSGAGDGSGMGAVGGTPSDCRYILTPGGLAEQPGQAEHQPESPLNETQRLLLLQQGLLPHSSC

[2] = target: T2, Serine/threonine-protein kinase STK11 (Homo sapiens, UniProt Q15831)
T2 sequence (Q15831 whole entry): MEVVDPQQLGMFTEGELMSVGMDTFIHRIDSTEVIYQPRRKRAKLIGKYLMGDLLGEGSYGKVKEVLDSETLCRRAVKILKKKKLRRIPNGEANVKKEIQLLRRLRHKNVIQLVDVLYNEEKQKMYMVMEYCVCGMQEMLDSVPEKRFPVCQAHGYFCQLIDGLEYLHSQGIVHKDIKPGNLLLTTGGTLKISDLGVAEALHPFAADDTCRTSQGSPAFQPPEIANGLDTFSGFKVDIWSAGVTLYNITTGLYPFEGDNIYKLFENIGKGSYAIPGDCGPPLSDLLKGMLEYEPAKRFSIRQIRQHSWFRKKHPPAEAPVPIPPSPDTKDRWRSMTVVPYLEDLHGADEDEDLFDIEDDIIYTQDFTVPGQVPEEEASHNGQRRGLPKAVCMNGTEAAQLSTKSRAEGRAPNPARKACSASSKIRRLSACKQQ

[3] = target: T3, Calcium/calmodulin-dependent protein kinase type IV (Homo sapiens, UniProt Q16566)
T3 sequence (Q16566 whole entry): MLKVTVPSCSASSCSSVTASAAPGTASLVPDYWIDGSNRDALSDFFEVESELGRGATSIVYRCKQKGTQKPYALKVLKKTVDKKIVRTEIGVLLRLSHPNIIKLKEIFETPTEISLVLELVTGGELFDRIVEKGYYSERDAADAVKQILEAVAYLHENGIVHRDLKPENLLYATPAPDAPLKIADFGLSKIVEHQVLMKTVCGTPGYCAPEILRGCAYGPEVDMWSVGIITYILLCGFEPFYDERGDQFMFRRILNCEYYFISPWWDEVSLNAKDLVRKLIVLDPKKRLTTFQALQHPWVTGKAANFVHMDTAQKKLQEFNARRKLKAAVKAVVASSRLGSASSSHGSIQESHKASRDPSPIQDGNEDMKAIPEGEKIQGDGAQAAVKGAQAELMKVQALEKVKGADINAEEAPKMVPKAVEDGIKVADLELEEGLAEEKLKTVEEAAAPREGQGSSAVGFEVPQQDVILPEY

[4] = target: T4, 3-phosphoinositide-dependent protein kinase 1 (Homo sapiens, UniProt O15530)
T4 sequence (O15530 whole entry): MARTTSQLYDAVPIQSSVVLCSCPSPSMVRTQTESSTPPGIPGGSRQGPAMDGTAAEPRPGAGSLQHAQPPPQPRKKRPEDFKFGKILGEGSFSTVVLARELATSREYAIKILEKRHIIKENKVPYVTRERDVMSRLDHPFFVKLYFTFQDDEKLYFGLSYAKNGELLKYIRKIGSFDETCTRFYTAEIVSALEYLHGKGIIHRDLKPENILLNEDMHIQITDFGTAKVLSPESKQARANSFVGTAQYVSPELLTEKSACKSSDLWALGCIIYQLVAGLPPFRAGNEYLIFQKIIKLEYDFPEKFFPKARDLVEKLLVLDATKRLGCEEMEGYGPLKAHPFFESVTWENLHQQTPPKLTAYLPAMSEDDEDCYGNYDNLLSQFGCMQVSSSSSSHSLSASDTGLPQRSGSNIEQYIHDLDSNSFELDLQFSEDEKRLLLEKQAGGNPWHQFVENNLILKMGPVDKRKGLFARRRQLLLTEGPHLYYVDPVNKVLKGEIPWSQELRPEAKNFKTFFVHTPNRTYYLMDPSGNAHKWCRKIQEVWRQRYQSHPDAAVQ

[5] = target: Serine/threonine-protein kinase tousled-like 2 (Homo sapiens, UniProt Q86UE8)
[6] = target: T5, Dual specificity mitogen-activated protein kinase kinase 4 (Homo sapiens, UniProt P45985)
T5 sequence (P45985 whole entry): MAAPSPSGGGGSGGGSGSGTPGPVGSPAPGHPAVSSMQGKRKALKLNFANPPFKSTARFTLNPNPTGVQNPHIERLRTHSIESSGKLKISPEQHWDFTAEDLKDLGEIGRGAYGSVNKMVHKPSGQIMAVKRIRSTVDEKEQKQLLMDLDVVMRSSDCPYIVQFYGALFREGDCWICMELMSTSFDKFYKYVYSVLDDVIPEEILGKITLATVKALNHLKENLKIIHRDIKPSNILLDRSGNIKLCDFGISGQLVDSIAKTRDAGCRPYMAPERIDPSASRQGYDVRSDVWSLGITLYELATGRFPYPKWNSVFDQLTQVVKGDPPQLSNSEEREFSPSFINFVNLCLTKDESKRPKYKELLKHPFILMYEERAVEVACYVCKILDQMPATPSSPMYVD

Sequence of Serine/threonine-protein kinase tousled-like 2 (Q86UE8 whole entry): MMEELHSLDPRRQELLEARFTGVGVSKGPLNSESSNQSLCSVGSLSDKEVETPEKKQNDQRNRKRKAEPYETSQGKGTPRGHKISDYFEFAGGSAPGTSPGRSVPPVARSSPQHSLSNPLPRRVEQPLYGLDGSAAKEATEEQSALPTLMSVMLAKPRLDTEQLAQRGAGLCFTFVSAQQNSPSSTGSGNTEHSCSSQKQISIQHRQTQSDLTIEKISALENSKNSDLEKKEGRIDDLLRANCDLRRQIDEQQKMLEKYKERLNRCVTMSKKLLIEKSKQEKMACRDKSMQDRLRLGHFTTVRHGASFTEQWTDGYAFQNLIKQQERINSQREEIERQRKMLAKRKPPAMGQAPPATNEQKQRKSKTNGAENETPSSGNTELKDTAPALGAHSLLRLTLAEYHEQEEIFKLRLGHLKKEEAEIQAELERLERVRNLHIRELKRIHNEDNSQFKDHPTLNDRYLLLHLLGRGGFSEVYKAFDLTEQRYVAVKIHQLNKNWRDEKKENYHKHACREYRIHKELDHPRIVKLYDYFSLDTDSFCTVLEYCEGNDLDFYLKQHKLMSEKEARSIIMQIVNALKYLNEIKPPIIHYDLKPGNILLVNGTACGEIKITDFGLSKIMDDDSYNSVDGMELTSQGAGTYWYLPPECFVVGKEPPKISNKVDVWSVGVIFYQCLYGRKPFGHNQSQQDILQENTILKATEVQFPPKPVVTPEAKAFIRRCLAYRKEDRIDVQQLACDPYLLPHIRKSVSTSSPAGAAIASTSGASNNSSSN

| Compound | Kd [1] [µM] | Kd [2] [µM] | Kd [3] [µM] | Kd [4] [µM] | Kd [5] [µM] | Kd [6] [µM] |
| --- | --- | --- | --- | --- | --- | --- |
| COCC(=O)NC/C=C/c1ccc2ncnc(Nc3ccc(Oc4ccc(C)nc4)c(C)c3)c2c1 [CP-724714] | > 10 | > 10 | > 10 | > 10 | > 10 | > 10 |
| CCOc1cc2ncc(C#N)c(Nc3ccc(F)c(Cl)c3)c2cc1NC(=O)/C=C/CN(C)C [PELITINIB] |  | > 10 | > 10 | > 10 | > 10 | > 10 |
| NC(=O)c1ccc(-c2nc(-c3ccc4c(c3)OCO4)c(-c3ccccn3)[nH]2)cc1 [SB-431542] | > 10 | > 10 | > 10 | > 10 | > 10 | > 10 |
| CCN1CCN(Cc2ccc(NC(=O)Nc3ccc(Oc4cc(NC)ncn4)cc3)cc2C(F)(F)F)CC1 [AST-487] |  |  |  |  |  | > 10 |
| Nc1nc(Nc2ccc(S(N)(=O)=O)cc2)nn1C(=O)c1c(F)cccc1F [JNJ-7706621] | > 10 | > 10 | > 10 | 3.1 |  |  |
| Oc1ccc(-c2nc(-c3ccncc3)c(-c3ccc(F)cc3)[nH]2)cc1 [SB-202190] | > 10 | > 10 | > 10 | > 10 | > 10 | > 10 |

From ChEMBL document CHEMBL1150977, “A quantitative analysis of kinase inhibitor selectivity” (Nat Biotechnol, 2008)
